Measured values published in patent publication US7005447B2, “Food product comprising hydroxymatairesinol” (Hormos Nutraceutical Oy Ltd., priority 1999, dated 2006).

Columns and labels:
MCF-7 cells = assay: Estrogenic and antiestrogenic activity in MCF-7 cell proliferation assay; format: cell-based, human; design: Estrogenic activity, cell proliferation: dose or concentration left out as unconfirmed; conditions: 5 to 7 days, FIG. 2
Protocol: The MCF-7 cell line (human breast cancer cells) stock cultures were grown in phenol red free RPMI medium supplemented with 5% FCS, 100 U/ml penicillin and 100 μg/ml streptomycin, 10 μg/ml insulin and 1 nM 17β-estradiol in T-75 cell culture bottles. The medium was replaced with fresh ones three times per week. The stock cultures were harvested by trypsinization and suspended in 10 ml phenol red free versene solution and cenitifuged for 5 min 800 rpm. The cell pellet was carefully resuspended into RPMI medium supplemented with 5% dextran charcoal stripped FCS (dcFCS) and seeded on 6 well plates 50 000 cells/3.0 ml medium/well. On the second day of culture the medium was changed and test compounds were added. To test the estrogenicity of the lignan compounds, they were diluted in ethanol and added to cell cultures in final concentration of […]. In each proliferation assay 1.0 nM 17β-estradiol solution in ethanol was used as a positive control for estrogenic response. Equal amounts of ethanol were added to control wells. To test the antiestrogenicity both 17β-estradiol and lignan solutions were added to cell cultures. The cells were cultured for 5 to 7 days in the presence of test compounds, and the medium was changed every second day. Cell proliferation was quantified by counting the released nuclei with Coulter counter.

[1] = system: DMBA-induced mammary gland tumors; assay: Antitumor activity in rat DMBA-induced mammary cancer model; format: in vivo
Protocol: Antitumor activity of HMR in rat mammary cancer was studied as described earlier ([…] et al. 1986). Fifty-day-old female Sprague-Dawley rats were given 12.0 mg DMBA (dimethylbentz[a]anthracene) by […]. After approximately 6 weeks palpable tumors could be detected, whereafter the width (w) and the length (1) of the tumors were measured once a week to determine the tumor volumes according to a formula V=(πw^2 l)/12. The rats were also weighed once a week. The rats were allocated in 3 different groups so that the total number of tumors in the beginning of the experiment was similar in each group: (1) Control group 8 animals, (2) HMR 3.0 mg/kg 7 animals, and (3) HMR 15.0 mg/kg 7 animals, one of which had to be killed before the end of the experiment. HMR was given per os starting 9 weeks after the DMBA-induction, i.e. 3 weeks after palpable tumors appeared, and was given daily for 7.5 weeks. At the end of the experiment the tumors were classified in groups according to their growth pattern: 1. Growing tumors (PD=progressive disease); 2. Non-growing, stabilized tumors (SD=stabilized disease, no change in tumor volume or regression less than 75%; 3. Regressing tumors (PR=partial response, regression of tumor volume more than 75%); 4. Disappeared tumors (CR=complete response, no palpable tumor).

[2] = Superoxide anion scavenging (xanthine-xanthine oxidase system, chemiluminescence); format: biochemical; conditions: read-out: Superoxide anion scavenging, IC-50
Protocol: Superoxide anion scavenging method was based on the superoxide anion produced in controlled conditions by xanthine-xanthine oxidase system and detection of the generated reactive oxygen species by luminometer (Ahotupa et al., 1997). The ability of test compounds to decrease the chemiluminescence was evaluated. IC-50 concentration (concentration which prevented the chemiluminescence by 50%) was calculated.

[3] = Analysis of metabolites from rat urine after different doses of HMR (GC-MS); format: in vivo; conditions: 24 hour urine
Protocol: Ten Sprague—Dawley male rats (age 4 month) were used to study the metabolism of HMR in vivo. Animals were housed in pairs with 12 h light:dark cycle and had free access to water and soy-free basal diet (SDS, Whitham Essex, England) during the metabolism study.
Rats were cavaged with HMR dissolved in 10% ethanol in PEG in doses 3, 15, 25 and 50 mg/kg body weight once a day for two days. After second cavaging the 24 hour urine was collected in metabolic cages in collection jars containing 120 μl 0.56 M ascorbic acid and 120 μl 0.15 M Na-azide as preservatives. The centrifuged urine volumes were measured and stored in −20° C. For pretreatment 750 μl 0.2 M acetate buffer (pH 4.0±0.1) was added to 3.0 ml thawed urine aliquots. Sep-Pak C18 columns (100 mg silica based resin/column) were used for urine extractions. Columns were preconditioned with 3.0 ml H2O, 3.0 ml methanol and 3.0 ml acetate buffer. After urine had filtered through the column and washed with 3.0 ml of acetate buffer polyphenolics were eluted with 3.0 ml methanol. The eluate was evaporated to dryness under nitrogen in +45° C. water bath and dryed residues were redissolved in 3.0 ml of 0.2 M acetate buffer. 30 μl Helix pomatia enzyme mix was added and the solutions were incubated in +37° C. to hydrolyze both glucuronides and sulfates. 300 μl of flavone stock solution (100 μg/ml in EtOH) was added into hydrolyzed samples. The samples were extracted in C-18 columns and evaporated to dryness as described above and stored in −20° C. until analyzed with GC-MS.
The evaporated urine samples were dissolved in pyridine, and silylated by adding BSTFA:TMCS (10:1) silylation reagent. The GC-MS analyses of the silylated samples were performed with an HP 6890-5973 GC-MS instrument. The GC column was an HP-1 crosslinked methyl polysiloxane column (15 m×0.25 mm i.d., 0.25 μm film thickness). Helium was used as carrier gas at a flow of 1 ml/min. […] The quantitative calculations were based on uncorrected peak areas of target components relative to the internal standard.

[4] = system: uterine growth of immature rats; assay: Immature rat uterotropic test; format: in vivo; conditions: 7 days treatment, FIG. 3
Protocol: The estrogenicity HMR was evaluated by the uterotropic assay in immature rats which was performed as described earlier (Jordan et al. 1977), with the exception of treatment time which was 7 days instead of 3 days in the reference study. The treatment time was longer because of the expected weak estrogenicity of the test compound. The treatment of immature rats with an aromatase inhibitor (MPV-2213 ad), which prevents biosynthesis of estradiol, was used as a methodological control for non-estrogen-stimulated uterus.

IC50 [2]: 5.6 µM
Main excreting metabolite in urine ([3]; male rats, 3, 15, 25 and 50 mg/kg once a day for two days, FIG. 5): enterolactone
Relation between doses of HMR and amounts of urinary enterolactone ([3]; male rats, 3 to 50 mg/kg): linear correlation
Unmetabolized HMR and other metabolites (enterodiol and 7-hydroxyenterolactone) found in urine ([3]; male rats, unchanged when daily dose increased): Only minute amounts
SMILES: COc1cc(CC2C(=O)OCC2C(O)c2ccc(O)c(OC)c2)ccc1O (stereo not shown) [HMR, hydroxymatairesinol]
Estrogenic activity, cell proliferation (MCF-7 cells; MCF-7, lignan alone): very weak, not statistically significant
Antiestrogenic activity, cell proliferation (MCF-7 cells; MCF-7, lignan together with 17β-estradiol): very weak, not statistically significant
Dose-dependency of antitumor action ([1]; HMR 3.0 versus 15.0 mg/kg): no clear dose-dependency
Antitumor effect (growing versus stable, regressing and disappeared tumors) ([1]; female Sprague-Dawley rats, HMR 3.0 and 15.0 mg/kg per os daily for 7.5 weeks, FIG. 4): statistically very significant
Antiestrogenic effect (reduction of uterine weight gain) [4]: no antiestrogenic effect
Estrogenic effect on uterine weight gain [4]: no significant estrogenic effect
